Laboratory results from US20140005412A1, “TREATMENT OF ARTERIAL AGEING BY HMG CoA REDUCTASE INHIBITOR” (FARMICOM PHARMACEUTICAL COMPANY D.O.O., priority 2011, published 2014).

Tests used:
[1] = system: right common carotid artery; experiment: Ultrasound measurement of pulse-wave velocity (PWV); type: in vivo, human; conditions: for PWV, after treatment: after 1 month (30 days) treatment; for PWV, improvement: after 1 month vs before treatment
Procedure: (§1) Fifty apparently healthy male individuals (42.6±1.9 years) were recruited in double blind, randomized study. Inclusion criteria were: The control group (n=25) received placebo, while the test group (n=25) received subtherapeutic daily dose of fluvastatin sodium-10 mg daily (the recommended therapeutic daily dose is 40 to 80 mg) during a period of 1 month-30 days. All subjects underwent clinical examination, blood pressure measurements ([…] automated sphygmomanometer) and ultrasound measurement of flow-mediated dilatation of brachial artery (FMD), pulse-wave velocity (PWV) and β-stiffness of carotid artery at inclusion (0th day) and after 1 month (30th day) of the study. Fasting blood samples were taken at the beginning and at the end of the study for laboratory analysis. Blood glucose, electrolytes and cholesterol were obtained using the VITRO 5.1 FS Chemical system (Ortho Clinical Diagnostics, Inc.). The measurements of PWV and β-stiffness were performed on the right common carotid artery. The Aloka ultrasound device was also equipped with special software for automatic determination of the PWV and beta-stiffness through the analysis of pulse waves (Carerj S et al. Normal vascular aging evaluated by a new tool: e-tracking. Eur J Echocardiography 2006; suppl: S 49). All values were expressed as arithmetic mean±SEM and were normally distributed. Differences between values recorded at the beginning (0th day) and at the end of the study (30th day) were determined by one-way analysis of variance (ANOVA). When a significant interaction was present, the Bonferroni post-test was performed. […] All statistical analyses were performed using Graph Pad Prism 5.0 software.

arterial wall [2] = experiment: "Biological" arterial age according to age-related normogram; type: in vivo, human
Text: It is important to emphasize that there is a similarity between the terms morphological or structural which are used to describe the same characteristics by different authors but basically disclose the same characteristics of arterial wall. All three above mentioned methods FMD, PWV, and β-stiffness are standard in the art and generally widely accepted methods for estimation of functional or morphological characteristics of arteries. When administering the pharmaceutical composition according to the present invention the significant and unexpected improvement in all above mentioned characteristics are observed. Furthermore, by using age-related normogram obtained on large sample of apparently healthy subjects—who have a low cardiovascular risk as defined above—the estimation of “biological” arterial age can be determined. […] By using age-related normogram (according to the methods described in Jurasic M J et al. Beta stiffness—setting age standards. Acta Clin Croat 2009; 48:253-8; and Carerj S. Normal vascular ageing evaluated by a new tool: e-tracking. Eur J Echocardiography 2006; suppl 1:S49. Carerj S et al. Eur J Echocardiography 2006; suppl: S 49) the “biological” arterial age in participants according to Example 1 after 1 month of treatment and according to Example 2 after 5, 7 and 8 months after discontinuation of treatment was calculated (FIG. 3).

[3] = system: right common carotid artery; experiment: Ultrasound measurement of β-stiffness of carotid artery; type: in vivo, human; conditions: for β-stiffness, after treatment: after 1 month (30 days) treatment; for β-stiffness, improvement: after 1 month vs before treatment
Procedure: as §1

arterial wall [4] = experiment: "Biological" arterial age according to age-related normogram; type: in vivo, human; remark: listed apart in the source
[5] = blood plasma; cited from earlier work
[6] = Fasting blood laboratory analysis (cholesterol, triglycerides, glucose); type: in vivo, human; conditions: Example 1, n=25, 10 mg daily, mean ± SEM
Text: All subjects underwent clinical examination, blood pressure measurements ([…] automated sphygmomanometer) and ultrasound measurement of flow-mediated dilatation of brachial artery (FMD), pulse-wave velocity (PWV) and β-stiffness of carotid artery at inclusion (0th day) and after 1 month (30th day) of the study. Fasting blood samples were taken at the beginning and at the end of the study for laboratory analysis. Blood glucose, electrolytes and cholesterol were obtained using the VITRO 5.1 FS Chemical system (Ortho Clinical Diagnostics, Inc.).

brachial artery = experiment: Ultrasound measurement of flow-mediated dilatation of brachial artery (FMD), endothelial function; type: in vivo, human; conditions: for FMD, after treatment: after 1 month (30 days) treatment; for FMD, improvement: after 1 month vs before treatment
Procedure: Fifty apparently healthy male individuals (42.6±1.9 years) were recruited in double blind, randomized study. Inclusion criteria were: The control group (n=25) received placebo, while the test group (n=25) received subtherapeutic daily dose of fluvastatin sodium-10 mg daily (the recommended therapeutic daily dose is 40 to 80 mg) during a period of 1 month-30 days. All subjects underwent clinical examination, blood pressure measurements ([…] automated sphygmomanometer) and ultrasound measurement of flow-mediated dilatation of brachial artery (FMD), pulse-wave velocity (PWV) and β-stiffness of carotid artery at inclusion (0th day) and after 1 month (30th day) of the study. Fasting blood samples were taken at the beginning and at the end of the study for laboratory analysis. Blood glucose, electrolytes and cholesterol were obtained using the VITRO 5.1 FS Chemical system (Ortho Clinical Diagnostics, Inc.). Ultrasound measurements were performed by a single examiner using Aloka ProSound Alpha 10 echo-machine. Endothelial function was measured by means of FMD on the brachial artery according to FMD guidelines (Corretti M C et al. Guidelines for the ultrasound assessment of endothelial-dependent flow-mediated vasodilation of the brachial artery: a report of the International Brachial Artery Reactivity Task Force. J Am Coll Cardiol 2002; 39: 257-65). The echo-machine continuously tracked and recorded the brachial artery diameter. Following the measurement of baseline brachial artery diameter (1 min), the forearm blood pressure cuff was inflated to 50 mmHg above the systolic pressure for 4 min. After the occlusion period, the cuff was rapidly deflated, inducing reactive hyperemia, and the brachial artery diameter was recorded for 3 min. At the end of the measurement, the machine automatically provided the values of FMD. All values were expressed as arithmetic mean±SEM and were normally distributed. Differences between values recorded at the beginning (0th day) and at the end of the study (30th day) were determined by one-way analysis of variance (ANOVA). When a significant interaction was present, the Bonferroni post-test was performed. […] All statistical analyses were performed using Graph Pad Prism 5.0 software.

[7] = Example 1 study, 10 mg, after 30 days of treatment
[8] = Example 2, rest period 5 months
[9] = Example 2, rest period 7 months
[10] = Example 2, rest period 8 months
[11] = Example 4, 10 mg daily, after 1 month treatment period
[12] = Example 5, rest period 3 months
[13] = Example 5, rest period 5 months
[14] = Example 5, rest period 8 months
[15] = Example 6, ten participants, 10 mg daily, 1. intervention, before
[16] = Example 6, 1. intervention, after 1 month of treatment
[17] = Example 6, 2. intervention (repetition), after 1 month of treatment
[18] = Example 6, 2. intervention (repetition), before, after rest period of 12 months

Question: What does the source list for `CC(C)n1c(/C=C/C(O)CC(O)CC(=O)O)c(-c2ccc(F)cc2)c2ccccc21` (stereo not drawn) [Fluvastatin sodium, fluvastatin sodium]?
Answer: PWV, after treatment ([1]; Example 1, 10 mg daily): 5.41 m/s; PWV, improvement ([1]; Example 1, 10 mg daily): −6.4%; PWV, before treatment ([1]; Example 1, 10 mg daily): 5.76 m/s; PWV decreased by [1, 7]: 6.4%; PWV, residual improvement in % of effect achieved after 1 month of treatment [1, 8]: 29.7%; PWV, residual improvement in % of effect achieved after 1 month of treatment [1, 9]: 10%; PWV, residual improvement in % of effect achieved after 1 month of treatment [1, 10]: 1.9%; PWV decreased by [1, 11]: 10.4%; PWV, after treatment ([1]; Example 4, 10 mg daily): 5.00 m/s; PWV, improvement ([1]; Example 4, 10 mg daily): −10.4%; PWV, before treatment ([1]; Example 4, 10 mg daily): 5.52 m/s; PWV, residual improvement in % of effect achieved after 1 month of treatment [1, 12]: 55.2%; PWV, residual improvement in % of effect achieved after 1 month of treatment [1, 13]: 30.1%; PWV, residual improvement in % of effect achieved after 1 month of treatment [1, 14]: 5.2%; PWV [1, 15]: 5.5 ± 0.4 m/s; PWV [1, 16]: 5.1 ± 0.4 m/s; PWV [1, 17]: 5.3 ± 0.3 m/s; PWV [1, 18]: 5.6 ± 0.3 m/s; Arterial age according to age normogram, after treatment (arterial wall [2]; Example 1, 10 mg daily, after 1 month treatment): 38.2 years; Arterial age according to age normogram, improvement (arterial wall [2]; Example 1, 10 mg daily, after 1 month vs before treatment): −6.8 years; Arterial age according to age normogram, before treatment (arterial wall [2]; Example 1, 10 mg daily, before treatment): 45.0 years; Arterial age according to age-related normogram (arterial wall [2]; [8]): 42.3 years; Arterial age according to age-related normogram, difference (in brackets) to before treatment (arterial wall [2]; [8]): −2.7 years; Arterial age according to age-related normogram, difference (in brackets) to before treatment (arterial wall [2]; [10]): −0.5 years; β-stiffness, after treatment ([3]; Example 1, 10 mg daily): 6.40 U; β-stiffness, improvement ([3]; Example 1, 10 mg daily): −10.9%; β-stiffness, before treatment ([3]; Example 1, 10 mg daily): 7.10 U; β-stiffness decreased by [3, 7]: 10.9%; β-stiffness, residual improvement in % of effect achieved after 1 month of treatment [3, 8]: 30.4%; β-stiffness, residual improvement in % of effect achieved after 1 month of treatment [3, 9]: 9%; β-stiffness, residual improvement in % of effect achieved after 1 month of treatment [3, 10]: 0.9%; β-stiffness of the carotid artery decreased by [3, 11]: 12.7%; β-stiffness, after treatment ([3]; Example 4, 10 mg daily): 6.10 U; β-stiffness, improvement ([3]; Example 4, 10 mg daily): −12.7%; β-stiffness, before treatment ([3]; Example 4, 10 mg daily): 6.88 U; β-stiffness, residual improvement in % of effect achieved after 1 month of treatment [3, 12]: 50.1%; β-stiffness, residual improvement in % of effect achieved after 1 month of treatment [3, 13]: 33.6%; β-stiffness, residual improvement in % of effect achieved after 1 month of treatment [3, 14]: 3.1%; β-stiffness [3, 15]: 6.4 ± 0.8 U; β-stiffness [3, 16]: 5.7 ± 0.7 U; β-stiffness [3, 17]: 6.0 ± 0.6 U; β-stiffness [3, 18]: 6.6 ± 0.6 U; Arterial age according to age-related normogram (arterial wall [4]; [9]): 43.6 years; Arterial age according to age-related normogram, difference (in brackets) to before treatment (arterial wall [4]; [9]): −1.4 years; Arterial age according to age-related normogram (arterial wall [4]; [10]): 44.5 years; Arterial age according to age-related normogram, after treatment (arterial wall [4]; Example 4, 10 mg daily, after 1 month treatment): 32.0 years; Arterial age according to age-related normogram, improvement (arterial wall [4]; Example 4, 10 mg daily, after 1 month vs before treatment): −9.0 years; Arterial age according to age-related normogram, before treatment (arterial wall [4]; Example 4, 10 mg daily, before treatment): 41.0 years; Arterial age according to age-related normogram (arterial wall [4]; [12]): 34.2 years; Arterial age according to age-related normogram, difference (in brackets) to before treatment (arterial wall [4]; [12]): −6.8 years; Arterial age according to age-related normogram (arterial wall [4]; [13]): 36.4 years; Arterial age according to age-related normogram, difference (in brackets) to before treatment (arterial wall [4]; [13]): −4.6 years; Arterial age according to age-related normogram (arterial wall [4]; [14]): 40.0 years; Arterial age according to age-related normogram, difference (in brackets) to before treatment (arterial wall [4]; [14]): −1.0 years; half-life time (t1/2) [5]: about 2.5 hours; HDL cholesterol ([6]; 1st day (baseline)): 1.2 ± 0.1 mmol/L; LDL cholesterol ([6]; 1st day (baseline)): 3.7 ± 0.2 mmol/L; Total cholesterol ([6]; 1st day (baseline)): 5.7 ± 0.2 mmol/L; Triglycerides ([6]; 1st day (baseline)): 1.6 ± 0.2 mmol/L; HDL cholesterol ([6]; 30th day): 1.2 ± 0.1 mmol/L; LDL cholesterol ([6]; 30th day): 3.6 ± 0.2 mmol/L; Total cholesterol ([6]; 30th day): 5.4 ± 0.2 mmol/L; Triglycerides ([6]; 30th day): 1.6 ± 0.3 mmol/L; FMD, after treatment (brachial artery; Example 1, 10 mg daily): 4.39%; FMD, improvement (brachial artery; Example 1, 10 mg daily): +91.0%; FMD, before treatment (brachial artery; Example 1, 10 mg daily): 2.31%; FMD increased by (brachial artery; Example 1 study (50 subjects, double-blind), 10 mg, after 30 days of treatment): 91.0%; FMD, residual improvement in % of effect achieved after 1 month of treatment (brachial artery; Example 2 (participants of Example 1), rest period 5 months): 53.3%; FMD, residual improvement in % of effect achieved after 1 month of treatment (brachial artery; [9]): 33%; FMD, residual improvement in % of effect achieved after 1 month of treatment (brachial artery; [10]): 10.5%; FMD increased by (brachial artery; [11]): 120.8%; FMD, after treatment (brachial artery; Example 4, 10 mg daily): 5.30%; FMD, improvement (brachial artery; Example 4, 10 mg daily): +120.8%; FMD, before treatment (brachial artery; Example 4, healthy males n=15, 10 mg daily): 2.40%; FMD, residual improvement in % of effect achieved after 1 month of treatment (brachial artery; Example 5 (participants of Example 4), rest period 3 months): 73.4%; FMD, residual improvement in % of effect achieved after 1 month of treatment (brachial artery; [13]): 55.2%; FMD, residual improvement in % of effect achieved after 1 month of treatment (brachial artery; [14]): 16.3%; FMD (brachial artery; [15]): 3.5 ± 0.6%; FMD (brachial artery; [16]): 5.3 ± 0.6%; FMD (brachial artery; [17]): 5.7 ± 0.2%; FMD (brachial artery; [18]): 3.9 ± 0.8%
